The source of these data is patent US20260166125A1, “NLRP12 AND NLRC5 MODULATORS AND METHODS FOR USING THE SAME TO MODULATE DISEASES” (St. Jude Children's Research Hospital, Inc., priority 2022, published 2026).

Experiment [1] has as its system heme plus Pam3-treated BMDMs. Description: Inhibitor effect on heme plus Pam3-induced cell death in BMDMs. It counts as cell-based, mouse. On the procedure:
(§1) Bone Marrow-Derived Macrophages (BMDMs). Primary mouse BMDMs from wild-type and indicated mutant mice were grown for 6 days in Iscove's Modified Dulbecco's Medium (IMDM; Thermo Fisher Scientific) supplemented with 10% Fetal Bovine Serum (Biowest), 30% L929-conditioned media, 1% non-essential amino acids (Thermo Fisher Scientific) and 1% penicillin and streptomycin (Thermo Fisher Scientific). BMDMs at a density of 1×10^6 cells/well in 12-well plates or 5×10^5 cells/well in 24-well plates were seeded into growth media overnight before use.
(§2) Cell Stimulation. BMDMs were stimulated with the following PAMPs, DAMPs and inhibitors alone or in combinations where indicated: 50 μM Hemin (heme; Sigma-Aldrich), 0.75 μg/mL Pam3CSK4 (Pam3; InvivoGen), 15 ng/mL ultrapure lipopolysaccharide (LPS) from E. coli 0111:B4 (InvivoGen), 500 ng/ml R848 (InvivoGen), 100 ng/mL TNF-α (Peprotech), 1 μg/mL poly(I:C) (Invivogen), 200 ng/mL monosodium urate crystals (Invivogen), 200 ng/mL recombinant mouse S100A8/S100A9 heterodimer (bio-techne), 200 ng/mL recombinant mouse HMGB1 (Abcam), 25 μM Z-VAD(OMe)-FMK (zVAD; Cayman Chemical) and 45 μM Necrostatin 2 racemate (Nec-1; Selleckchem).
(§3) Real-Time Imaging for Cell Death. The kinetics of cell death were monitored using the IncuCyte S3 or SX5 (Sartorius) live-cell analysis system. BMDMs (5×10^5 cells/well) were seeded in 24-well tissue culture plates and were treated with the indicated stimuli. Cell death was measured by propidium iodide (PI; Life Technologies) incorporation following the manufacturer's protocol. The plate was scanned for the indicated time durations where fluorescent and phase-contrast images were acquired in real-time every 1 hour. PI-positive dead cells are marked with a red mask and were quantified using the software package supplied with the IncuCyte imager.

Experiment [2] has as its system bone marrow-derived macrophages (BMDMs). Description: Real-time imaging for cell death (propidium iodide incorporation, IncuCyte). The conditions noted are these: WT BMDMs; stimuli alone or combined; 48 hours (FIG. 1, FIG. 2). In kind it is cell-based, mouse. As to the method:
as §1, §2, §3

Peptide text beside a SMILES is read from it. * marks the point of attachment. Cbz = O=C(OCc1ccccc1)*; CH2F = FC*

Consider `CN1C(=O)NC(Cc2c[nH]c3c(Cl)cccc23)C1=O` (racemic) [Nec-1, Necrostatin 2 racemate], for which the “effect on cell death” value in experiment [1] (WT BMDMs, heme plus Pam3, Nec-1 alone, compared to PBS control) was “partially reduced cell death”. Turning to `CC(C)(O)c1coc(S(=O)(=O)NC(=O)Nc2c3c(cc4c2CCC4)CCC3)c1` [MCC950], the “effect on cell death” value in experiment [1] (heme plus Pam3-treated BMDMs, MCC950) was “did not prevent cell death”.

For the molecule `O=c1[nH]c(=O)c2[nH]c([O-])nc2[nH]1.[Na+]` [MSU, monosodium urate], the cell death result in experiment [2] is on record as “did not induce cell death”.

As to `C=CC1=C(C)c2cc3[n-]c(cc4[n-]c(cc5nc(cc1n2)C(C)=C5C=C)c(C)c4CCC(=O)O)c(CCC(=O)O)c3C.[Cl-].[Fe+3]` [heme, ferriprotoporphyrin IX chloride], in experiment [2], the cell death result was “did not induce cell death”. In the case of `COC(=O)C[C@H](NC(=O)[C@H](C)NC(=O)[C@@H](NC(=O)OCc1ccccc1)C(C)C)C(=O)CF` [zVAD, Z-VAD(OMe)-FMK] (Cbz-Val-Ala-Asp(OMe)-CH2F), the “effect on cell death” value in experiment [1] (WT BMDMs, heme plus Pam3, combination of Nec-1 with zVAD) is “further reduced the cell death”. Consider Pam3CSK4, for which the cell death entry in experiment [2] is “Minimal cell death”. Take lipopolysaccharide [LPS]: the cell death result in experiment [2] is “Minimal cell death”. Same read-out and setting: the same measure for “polyinosinic:polycytidylic acid [poly(I:C)]”: “Minimal cell death”.

B1: high-mobility group box 1 protein (protein, UniProt P63158 1-215, looked up)
High mobility group protein B1: MGKGDPKKPRGKMSSYAFFVQTCREEHKKKHPDASVNFSEFSKKCSERWKTMSAKEKGKFEDMAKADKARYEREMKTYIPPKGETKKKFKDPNAPKRPPSAFFLFCSEYRPKIKGEHPGLSIGDVAKKLGEMWNNTAADDKQPYEKKAAKLKEKYEKDIAAYRAKGKPDAAKKGVVKAEKSKKKKEEEDDEEDEEDEEEEEEEEDEDEEEDDDDE
notes: recombinant mouse HMGB1, a DAMP
With B1, the cell death result in experiment [2] is “did not induce cell death”.

B2: S100A8/A9: recombinant mouse S100A8/S100A9 heterodimer, a DAMP (protein, UniProt P27005 2-89; P31725 2-113, looked up)
Protein S100-A8: PSELEKALSNLIDVYHNYSNIQGNHHALYKNDFKKMVTTECPQFVQNINIENLFRELDINSDNAINFEEFLAMVIKVGVASHKDSHKE
Protein S100-A9: ANKAPSQMERSITTIIDTFHQYSRKEGHPDTLSKKEFRQMVEAQLATFMKKEKRNEALINDIMEDLDTNQDNQLSFEECMMLMAKLIFACHEKLHENNPRGHGHSHGKGCGK
As for B2, the cell death entry in experiment [2] was “did not induce cell death”.
